Reference: BindingDB's records for doi:10.7270/Q2ZC817P (The Scripps Research Institute Molecular Screening Center, 2007)
Structures can show the parent of a compound that is named as a salt.

Molecular target: Sphingosine 1-phosphate receptor 1 (Homo sapiens, UniProt P21453)
Assay: S1P1 agonism potentiation – cell-based, potentiator mode, 60K MLSMR set, dose response (AID 466)
Details: not given

Sequence of Sphingosine 1-phosphate receptor 1 (P21453 whole entry): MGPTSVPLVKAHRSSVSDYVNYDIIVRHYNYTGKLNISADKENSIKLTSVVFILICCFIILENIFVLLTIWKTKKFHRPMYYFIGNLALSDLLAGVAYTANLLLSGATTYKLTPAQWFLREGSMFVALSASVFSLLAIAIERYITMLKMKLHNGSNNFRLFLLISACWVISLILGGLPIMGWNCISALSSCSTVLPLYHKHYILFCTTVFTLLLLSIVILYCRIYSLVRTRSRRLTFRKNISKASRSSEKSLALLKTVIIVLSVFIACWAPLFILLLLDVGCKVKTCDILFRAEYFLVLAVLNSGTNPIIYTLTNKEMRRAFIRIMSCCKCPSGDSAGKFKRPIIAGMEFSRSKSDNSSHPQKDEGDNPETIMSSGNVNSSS

Going from `N#C/C(=C/c1ccc(N2CCCCCC2)o1)c1ccc(F)cc1` [MLS000051438] to `COc1cc(C#CC#CCN2CCCCC2)ccc1O` [2-methoxy-4-(5-piperidin-1-ylpenta-1,3-diynyl)phenol;hydrochloride], the EC50 falls from > 10 µM to 7.1 µM. The second is the more potent here.

First: CC1=NC(=O)NC(c2ccccc2)C1C(=O)OCc1ccc2c(c1)OCO2 (stereo not given) [1,3-benzodioxol-5-ylmethyl 6-methyl-2-oxidanylidene-4-phenyl-3,4-dihydro-1H-pyrimidine-5-carboxylate]
Second: Cc1cc(C(=O)CSc2nnnn2-c2ccc(O)cc2)c(C)n1Cc1ccc2c(c1)OCO2 [1-(2,5-dimethyl-1-piperonyl-pyrrol-3-yl)-2-[[1-(4-hydroxyphenyl)tetrazol-5-yl]thio]ethanone]
The EC50 of the first is 1.8-fold lower: 3.42 µM for the first, 6.14 µM for the second.

`Cc1noc(/C=C/N(C)C)c1S(=O)(=O)N1CCN(c2ccccc2)CC1` [(E)-N,N-dimethyl-2-[3-methyl-4-(4-phenylpiperazin-1-yl)sulfonyl-1,2-oxazol-5-yl]ethenamine] and `CCN(CC)C(=O)C1CCN(S(=O)(=O)c2ccc3oc4ccccc4c3c2)CC1` [1-(2-dibenzofuranylsulfonyl)-N,N-diethyl-4-piperidinecarboxamide] cannot be ordered by EC50: > 95 µM for the first, > 30 µM for the second.

First: COc1ccc(-n2c(C)cc(C(=O)CSc3nnc(-c4cccs4)o3)c2C)cc1 [1-[1-(4-methoxyphenyl)-2,5-dimethyl-3-pyrrolyl]-2-[(5-thiophen-2-yl-1,3,4-oxadiazol-2-yl)thio]ethanone]
Second: CCOc1ccc(-c2nc(CSCC(=O)N3CCN(c4cccc(OC)c4)CC3)c(C)o2)cc1 [1-[4-(3-methoxyphenyl)piperazino]-2-[(5-methyl-2-p-phenetyl-oxazol-4-yl)methylthio]ethanone]
The EC50 of the first is 3.8-fold lower: 1.96 µM for the first, 7.42 µM for the second.

First: O=C(Nc1c(F)cc(F)cc1Br)c1cc(-c2ccc(O)cc2)on1 [MLS000116264]
Second: CCc1ccc(NC(=O)c2cc(-c3ccco3)on2)cc1 [MLS000087211]
The EC50 of the first is 2.1-fold lower: 2.14 µM for the first, 4.44 µM for the second.

`COc1ccc(-c2cn3c(C)c(C(=O)N4CCCc5ccccc54)sc3n2)cc1` [3,4-dihydro-2H-quinolin-1-yl-[6-(4-methoxyphenyl)-3-methyl-2-imidazo[2,1-b]thiazolyl]methanone] and `COc1cc2c(cc1OC)C(C)N(C(=O)c1cc3ccccc3o1)CC2` (stereo not given) [1-benzofuran-2-yl-(6,7-dimethoxy-1-methyl-3,4-dihydro-1H-isoquinolin-2-yl)methanone] cannot be ordered by EC50: > 30 µM for the first, > 30 µM for the second.

Compared with `COCC(=O)Nc1cccc(C(F)(F)F)c1` [2-methoxy-N-[3-(trifluoromethyl)phenyl]acetamide], `CCCC(=O)Nc1ccc2oc(-c3ccc(OC)c(Br)c3)nc2c1` [MLS000042482] is lower in EC50: > 95 µM for the first, 4.14 µM for the second.

Going from `COc1cc(-c2noc(C3CCCN(S(=O)(=O)c4cccc(Cl)c4)C3)n2)cc(OC)c1OC` (stereo not given) [1-(3-Chloro-benzenesulfonyl)-3-[3-(3,4,5-trimethoxy-phenyl)-[1,2,4]oxadiazol-5-yl]-piperidine] to `COC(=O)c1sc(NC(=O)c2ccc(OC)cc2OC)nc1C` [2-[(2,4-dimethoxybenzoyl)amino]-4-methyl-thiazole-5-carboxylic acid methyl ester], the EC50 rises from 2.6 µM to 7.76 µM (3-fold). The first is the more potent here.

First: CC(C)(C)OC(=O)N[C@@H](Cc1ccccc1)c1nnc(S(=O)(=O)Cc2ccccc2)o1 [SMR000047857]
Second: CC(C)c1cc(C(=O)N2CCN(C(c3ccccc3)c3ccccc3)CC2)no1 [(4-benzhydrylpiperazin-1-yl)-(5-propan-2-yl-1,2-oxazol-3-yl)methanone]
The EC50 of the first is 1.6-fold lower: 5.33 µM for the first, 8.42 µM for the second. The first is the more potent here.

`Cc1nn(C(=O)c2cccs2)c(N)c1-c1ccccc1` [(5-amino-3-methyl-4-phenyl-1-pyrazolyl)-thiophen-2-ylmethanone] and `O=C(c1cc(-c2ccco2)on1)N1CCN(C(c2ccccc2)c2ccccc2)CC1` [(4-benzhydrylpiperazin-1-yl)-[5-(furan-2-yl)-1,2-oxazol-3-yl]methanone] are within 1.5-fold of each other in EC50: 4.9 µM for the first, 5.82 µM for the second.

First: O=C(Nc1nc2c(s1)CCCC2)c1cc2n(n1)C(C(F)(F)F)CC(C1CC1)N2 (stereo not given) [5-Cyclopropyl-7-trifluoromethyl-4,5,6,7-tetrahydro-pyrazolo[1,5-a]pyrimidine-2-carboxylic acid (4,5,6,7-tetrahydro-benzothiazol-2-yl)-amide]
Second: CCn1c(SCC(=O)Nc2nc3ccc(C)cc3s2)nc2c(c1=O)SC(C)C2 (stereo not given) [2-[(3-ethyl-4-keto-6-methyl-6,7-dihydrothieno[3,2-d]pyrimidin-2-yl)thio]-N-(6-methyl-1,3-benzothiazol-2-yl)acetamide]
The EC50 of the first is 8.5-fold lower: 0.908 µM for the first, 7.72 µM for the second. The first is the more potent here.

Compared with `CCCS(=O)(=O)c1nnnn1-c1cccc(OC)c1` [1-(3-methoxyphenyl)-5-(propylsulfonyl)-1H-tetrazole], `Clc1ccc(-n2nnnc2Sc2ncnc3sccc23)cc1` [SMR000066808] is 1.7-fold higher in EC50: 3.19 µM for the first, 5.29 µM for the second.

First: CCc1ccc2oc(-c3cc(N)cc(C)c3O)nc2c1 [(6E)-4-amino-6-(5-ethyl-3H-1,3-benzoxazol-2-ylidene)-2-methyl-1-cyclohexa-2,4-dienone]
Second: Cc1ccc(C(C)C)c(OCc2ccc(-c3nnco3)cc2)c1 [2-[4-[(2-isopropyl-5-methyl-phenoxy)methyl]phenyl]-1,3,4-oxadiazole]
The EC50 of the first is 6.7-fold higher: 11.6 µM for the first, 1.72 µM for the second.

`Cc1noc(C)c1S(=O)(=O)N(CC(=O)Nc1ccc2c(c1)OCO2)c1ccc(C(C)C)cc1` [MLS000117405] and `O=C(Nc1nc(-c2ccc(Cl)s2)cs1)c1ccncc1` [MLS000098514] cannot be ordered by EC50: > 95 µM for the first, > 10 µM for the second.

`Cc1ccc(-c2n[nH]c(=S)n2C)cc1` and `CC(C)(C)SCCNS(=O)(=O)c1ccccc1` [MLS000112230] cannot be ordered by EC50: > 95 µM for the first, > 95 µM for the second.

In the case of `CCC(NC(=O)Nc1nnc(C(F)(F)F)s1)(C(F)(F)F)C(F)(F)F`, the EC50 is reported as > 95 µM.

Same assay, conditions: inactive by the depositor's call

In order of falling EC50:
1. COc1ccc(OCCCSc2ncccn2)cc1 [2-[3-(4-methoxyphenoxy)propylsulfanyl]pyrimidine]  48.2 µM
2. CCOC(=O)c1oc2ccc(S(=O)(=O)n3nc(-c4ccc(OC)cc4)cc3N)cc2c1C [5-[5-amino-3-(4-methoxyphenyl)pyrazol-1-yl]sulfonyl-3-methyl-coumarilic acid ethyl ester]  44.3 µM
3. Oc1c(C(c2ccco2)N2CCN(C(c3ccccc3)c3ccccc3)CC2)sc2ncnn12 (stereo not given) [5-[(4-benzhydrylpiperazin-1-yl)-(furan-2-yl)methyl]-[1,3]thiazolo[3,2-b][1,2,4]triazol-6-ol]  20.1 µM
4. CCCn1c(CN2CCN(c3cccc(Cl)c3)CC2)nc2c1c(=O)n(C)c(=O)n2C [8-[[4-(3-chlorophenyl)-1-piperazinyl]methyl]-1,3-dimethyl-7-propylpurine-2,6-dione]  18.8 µM
5. Clc1ccc(-c2nc3nc4ccccc4nc3n2Cc2ccco2)cc1 [2-(4-chlorophenyl)-3-(2-furanylmethyl)imidazo[4,5-b]quinoxaline]  16.6 µM
6. CCNc1nc2c(c(=O)n(C)c(=O)n2C)n1Cc1ccc(Cl)cc1 [7-(4-chlorobenzyl)-8-(ethylamino)-1,3-dimethyl-xanthine]  14.4 µM
7. CC(C)OCCCNc1ncnc2c1[nH]c1ccccc12 [MLS000041327]  13.2 µM
8. Cc1ccc(Cl)cc1N1CCN(C(=O)COc2ccc(S(=O)(=O)NC(C)C)cc2)CC1 [4-[2-[4-(5-chloranyl-2-methyl-phenyl)piperazin-1-yl]-2-oxidanylidene-ethoxy]-N-propan-2-yl-benzenesulfonamide]  13.1 µM
9. CCOC(=O)c1sc2nc(NC(=O)C(C)(C)C)sc2c1C [2-[(2,2-dimethyl-1-oxopropyl)amino]-6-methyl-5-thieno[2,3-d]thiazolecarboxylic acid ethyl ester]  10.1 µM
